Experimental data published in patent US7811599B2, “Pharmaceutical combinations comprising a fungicide, a bacteriostatic sulphonamide and an antibacterial compound for topical application” (priority 2001, dated 2010).
≈ marks a conversion by molar mass, not a printed value.

Key:
Assay type in all cases: cell-based
Escherichia coli = assay: MIC values of active ingredients (in nutrient liquid); conditions: Table I
Method: (§1) The experiments are carried out in an ambience free of germs. […] The following compounds were tested: azithromycin, clarithromycin, erythromycin, miconazole, […]-sulphate. Test organisms: Bacteria: Escherichia coli, Pseudomonas aeruginosa, Serratia marcescens, Staphylococcus aureus, Streprococcus pyogenes. Fungi: Aspergillus flavus, Fusarium oxysporum, Candida albicans, Candida parapsilosus. Nutrient media: Soye bouillon, Sabouraud nutrient liquor. Solvents: methanol a.r. and for […]-sulphate the mixture of butanol:ethanol:water in the ratio of 1:1:2. Negative control: nutrient medium exempt of test organisms. Positive control: nutrient medium and 10 μL of the inoculum. Following preparation of the inoculum and incubation the MIC values were determined according to the above.

Streptococcus pyogenes = assay: as above; conditions: Table I
Method: as §1

Pseudomonas aeruginosa = assay: as above; conditions: Table I
Method: as §1

Staphylococcus aureus = assay: as above; conditions: Table I
Method: as §1

Serratia marcescens = assay: as above; conditions: Table I
Method: as §1

Candida albicans = assay: as above; conditions: Table I
Method: as §1, with “For fungi: Sabouraud nutrient liquid containing glucose, […] digested casein and water. The experiments” for “The experiments”

Candida parapsilosis = assay: as above; conditions: Table I; for MIC: Lodderomyces parapsilosis
Method: as §1, with “For fungi: Sabouraud nutrient liquid containing glucose, […] digested casein and water. The experiments” for “The experiments”

Fusarium oxysporum = assay: as above; conditions: Table I
Method: as §1, with “For fungi: Sabouraud nutrient liquid containing glucose, […] digested casein and water. The experiments” for “The experiments”

Aspergillus flavus = assay: as above; conditions: Table I
Method: as §1, with “For fungi: Sabouraud nutrient liquid containing glucose, […] digested casein and water. The experiments” for “The experiments”

[1] = system: all tested bacteria and fungi; assay: MIC values of active ingredients on 9 different microbe strains, summary in words; conditions: summary of Table I
Method: For fungi: Sabouraud nutrient liquid containing glucose, tripsine digested casein and water.
The experiments are carried out in an ambience free of germs.
The following compounds were tested: azithromycin, clarithromycin, erythromycin, miconazole, primicin-sulphate. Test organisms: Bacteria: Escherichia coli, Pseudomonas aeruginosa, Serratia marcescens, Staphylococcus aureus, Streprococcus pyogenes. Fungi: Aspergillus flavus, Fusarium oxysporum, Candida albicans, Candida parapsilosus. Nutrient media: Soye bouillon, Sabouraud nutrient liquor. Solvents: methanol a.r. and for primicin-sulphate the mixture of butanol:ethanol:water in the ratio of 1:1:2. Negative control: nutrient medium exempt of test organisms. Positive control: nutrient medium and 10 μL of the inoculum.
Following preparation of the inoculum and incubation the MIC values were determined according to the above.

Compound | MIC (Escherichia coli) | MIC (Streptococcus pyogenes) | MIC (Pseudomonas aeruginosa) | MIC (Staphylococcus aureus) | MIC (Serratia marcescens) | MIC (Candida albicans) | MIC (Candida parapsilosis) | MIC (Fusarium oxysporum) | MIC (Aspergillus flavus) | activity in the MIC test, in words [1] | MIC values (Escherichia coli) | MIC values (Streptococcus pyogenes) | MIC values (Pseudomonas aeruginosa) | MIC values (Staphylococcus aureus) | MIC values (Serratia marcescens) | MIC values (Candida albicans) | MIC values (Candida parapsilosis) | MIC values (Fusarium oxysporum) | MIC values (Aspergillus flavus)
CC[C@H]1OC(=O)[C@H](C)[C@@H](O[C@H]2C[C@@](C)(OC)[C@@H](O)[C@H](C)O2)[C@H](C)[C@@H](O[C@@H]2O[C@H](C)C[C@H](N(C)C)[C@H]2O)[C@](C)(OC)C[C@@H](C)C(=O)[C@H](C)[C@@H](O)[C@]1(C)O [clarithromycin] | 95 µg/mL (≈ 127 µM) | 1 µg/mL (≈ 1.34 µM) | 80 µg/mL (≈ 107 µM) | 0.2 µg/mL (≈ 0.267 µM) | 100 µg/mL (≈ 134 µM) | > 100 µg/mL | > 100 µg/mL | > 100 µg/mL | > 100 µg/mL | – | – | – | – | – | – | – | – | – | –
CC[C@H]1OC(=O)[C@H](C)[C@@H](O[C@H]2C[C@@](C)(OC)[C@@H](O)[C@H](C)O2)[C@H](C)[C@@H](O[C@@H]2O[C@H](C)C[C@H](N(C)C)[C@H]2O)[C@](C)(O)C[C@@H](C)C(=O)[C@H](C)[C@@H](O)[C@]1(C)O [erythromycin] | 100 µg/mL (≈ 136 µM) | 3 µg/mL (≈ 4.09 µM) | 90 µg/mL (≈ 123 µM) | 1 µg/mL (≈ 1.36 µM) | 300 µg/mL (≈ 409 µM) | > 500 µg/mL | 500 µg/mL (≈ 681 µM) | > 500 µg/mL | > 500 µg/mL | – | – | – | – | – | – | – | – | – | –
CC[C@H]1OC(=O)[C@H](C)[C@@H](O[C@H]2C[C@@](C)(OC)[C@@H](O)[C@H](C)O2)[C@H](C)[C@@H](O[C@@H]2O[C@H](C)C[C@H](N(C)C)[C@H]2O)[C@](C)(O)C[C@@H](C)CN(C)[C@H](C)[C@@H](O)[C@]1(C)O [azithromycin] | 6 µg/mL (≈ 8.01 µM) | 3 µg/mL (≈ 4.01 µM) | 65 µg/mL (≈ 86.8 µM) | 2 µg/mL (≈ 2.67 µM) | 8 µg/mL (≈ 10.7 µM) | > 500 µg/mL | 500 µg/mL (≈ 668 µM) | > 500 µg/mL | > 500 µg/mL | effective on all tested bacteria | – | – | – | – | – | – | – | – | –
Clc1ccc(COC(Cn2ccnc2)c2ccc(Cl)cc2Cl)c(Cl)c1 (stereo not drawn) [miconazole] | > 500 µg/mL | 0.5 µg/mL (≈ 1.2 µM) | > 500 µg/mL | 3 µg/mL (≈ 7.21 µM) | > 500 µg/mL | 0.5 µg/mL (≈ 1.2 µM) | 0.2 µg/mL (≈ 0.481 µM) | > 8 µg/mL | 2 µg/mL (≈ 4.81 µM) | inhibits all tested fungi and cocci | – | – | – | – | – | – | – | – | –
primycin | – | – | – | – | – | – | – | – | – | acceptably active against Candida type fungi but not against all tested bacteria | 100< μg/ml | 0.5 µg/mL | 100< μg/ml | 0.2 µg/mL | 100< μg/ml | 18 µg/mL | 5.0 µg/mL | 100< μg/ml | 100< μg/ml
